Several values for one entry are separate records, joined by “and”; a condition that tells them apart may be missing. Identical values can stand only once.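 Method: 48-hour compound exposure of cells in 96-well plates, five concentrations, linear interpolation of endpoints. The concentration for full growth arrest is given as TGI.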
What was measured:
Assay in all cases: DTP human tumour cell line panel, 48 h
SK-MEL-28 melanoma = tested on: SK-MEL-28 melanoma
UACC-257 melanoma = tested on: UACC-257 melanoma
MCF7 breast = tested on: MCF7 breast
HOP-92 NSCLC = tested on: HOP-92 NSCLC
NCI-H23 lung = tested on: NCI-H23 lung
SN12C renal = tested on: SN12C renal
SF-295 CNS = tested on: SF-295 CNS
RXF-631 renal = tested on: RXF-631 renal
MDA-MB-435 = tested on: MDA-MB-435
COLO 205 colon = tested on: COLO 205 colon
M14 melanoma = tested on: M14 melanoma
NCI-H522 lung = tested on: NCI-H522 lung
SF-539 CNS = tested on: SF-539 CNS
DMS 114 small cell lung = tested on: DMS 114 small cell lung
UACC-62 melanoma = tested on: UACC-62 melanoma
LOX IMVI melanoma = tested on: LOX IMVI melanoma
SNB-75 CNS = tested on: SNB-75 CNS
786-0 renal = tested on: 786-0 renal
HCT-15 colon = tested on: HCT-15 colon
SK-MEL-5 melanoma = tested on: SK-MEL-5 melanoma
A549 NSCLC = tested on: A549 NSCLC
SK-OV-3 ovarian = tested on: SK-OV-3 ovarian
EKVX NSCLC = tested on: EKVX NSCLC
OVCAR-4 ovarian = tested on: OVCAR-4 ovarian
CAKI-1 renal = tested on: CAKI-1 renal
NCI-H226 lung = tested on: NCI-H226 lung
UO-31 renal = tested on: UO-31 renal
KM20L2 colon = tested on: KM20L2 colon
TK-10 renal = tested on: TK-10 renal
T-47D breast = tested on: T-47D breast
ACHN renal = tested on: ACHN renal
OVCAR-8 ovarian = tested on: OVCAR-8 ovarian
U251 CNS = tested on: U251 CNS
HS 578T breast = tested on: HS 578T breast
SF-268 CNS = tested on: SF-268 CNS
MDA-MB-231 breast = tested on: MDA-MB-231 breast
HCC-2998 colon = tested on: HCC-2998 colon
HCT-116 colon = tested on: HCT-116 colon
DMS 273 small cell lung = tested on: DMS 273 small cell lung
LXFL 529 NSCLC = tested on: LXFL 529 NSCLC
XF 498 CNS = tested on: XF 498 CNS
KM12 colon = tested on: KM12 colon
DLD-1 colon = tested on: DLD-1 colon
RXF 393 renal = tested on: RXF 393 renal
SNB-78 CNS = tested on: SNB-78 CNS
RPMI-8226 leukemia = tested on: RPMI-8226 leukemia
HL-60(TB) leukemia = tested on: HL-60(TB) leukemia
HOP-62 NSCLC = tested on: HOP-62 NSCLC
M19-MEL melanoma = tested on: M19-MEL melanoma
HOP-18 NSCLC = tested on: HOP-18 NSCLC
MALME-3M melanoma = tested on: MALME-3M melanoma
HT29 colon = tested on: HT29 colon
NCI-H460 lung = tested on: NCI-H460 lung
SNB-19 CNS = tested on: SNB-19 CNS
CCRF-CEM leukemia = tested on: CCRF-CEM leukemia
BT-549 breast = tested on: BT-549 breast
NCI/ADR-RES ovarian = tested on: NCI/ADR-RES ovarian
DU-145 prostate = tested on: DU-145 prostate
OVCAR-3 ovarian = tested on: OVCAR-3 ovarian
SK-MEL-2 melanoma = tested on: SK-MEL-2 melanoma
PC-3 prostate = tested on: PC-3 prostate
A498 renal = tested on: A498 renal
MOLT-4 leukemia = tested on: MOLT-4 leukemia
K-562 leukemia = tested on: K-562 leukemia
SR leukemia = tested on: SR leukemia
OVCAR-5 ovarian = tested on: OVCAR-5 ovarian
IGROV1 ovarian = tested on: IGROV1 ovarian
SW-620 colon = tested on: SW-620 colon

## O=S(=O)(O)c1ccc(-c2c3nc(c(-c4ccc(S(=O)(=O)O)cc4)c4ccc([nH]4)c(-c4ccc(S(=O)(=O)O)cc4)c4nc(c(-c5ccc(S(=O)(=O)O)cc5)c5ccc2[nH]5)C=C4)C=C3)cc1
SK-MEL-28 melanoma
  TGI: > 100 µM and 73.4 µM
UACC-257 melanoma
  TGI: > 100 µM
MCF7 breast
  TGI: > 100 µM
HOP-92 NSCLC
  TGI: > 100 µM and 76.8 µM
NCI-H23 lung
  TGI: > 100 µM
SN12C renal
  TGI: > 100 µM
SF-295 CNS
  TGI: > 100 µM
RXF-631 renal
  TGI: > 100 µM
MDA-MB-435
  TGI: > 100 µM
COLO 205 colon
  TGI: > 100 µM
M14 melanoma
  TGI: > 100 µM
NCI-H522 lung
  TGI: > 100 µM
SF-539 CNS
  TGI: > 100 µM
DMS 114 small cell lung
  TGI: > 100 µM
UACC-62 melanoma
  TGI: > 100 µM
LOX IMVI melanoma
  TGI: > 100 µM
SNB-75 CNS
  TGI: > 100 µM and 55.1 µM
786-0 renal
  TGI: > 100 µM
HCT-15 colon
  TGI: > 100 µM
SK-MEL-5 melanoma
  TGI: > 100 µM
A549 NSCLC
  TGI: > 100 µM
SK-OV-3 ovarian
  TGI: > 100 µM
EKVX NSCLC
  TGI: > 100 µM
OVCAR-4 ovarian
  TGI: > 100 µM
CAKI-1 renal
  TGI: > 100 µM
NCI-H226 lung
  TGI: 93.6 µM
UO-31 renal
  TGI: > 100 µM and 54.8 µM
KM20L2 colon
  TGI: > 100 µM
TK-10 renal
  TGI: 73.9 µM and > 100 µM
T-47D breast
  TGI: > 100 µM
ACHN renal
  TGI: > 100 µM
OVCAR-8 ovarian
  TGI: > 100 µM
U251 CNS
  TGI: > 100 µM
HS 578T breast
  TGI: > 100 µM
SF-268 CNS
  TGI: > 100 µM
MDA-MB-231 breast
  TGI: > 100 µM
HCC-2998 colon
  TGI: > 100 µM
HCT-116 colon
  TGI: > 100 µM
DMS 273 small cell lung
  TGI: > 100 µM
LXFL 529 NSCLC
  TGI: > 100 µM
XF 498 CNS
  TGI: > 100 µM
KM12 colon
  TGI: > 100 µM
DLD-1 colon
  TGI: > 100 µM
RXF 393 renal
  TGI: 96.2 µM and 85.3 µM
SNB-78 CNS
  TGI: > 100 µM
RPMI-8226 leukemia
  TGI: > 100 µM
HL-60(TB) leukemia
  TGI: > 100 µM
HOP-62 NSCLC
  TGI: > 100 µM
M19-MEL melanoma
  TGI: > 100 µM
HOP-18 NSCLC
  TGI: > 100 µM
MALME-3M melanoma
  TGI: > 100 µM
HT29 colon
  TGI: > 100 µM
NCI-H460 lung
  TGI: > 100 µM
SNB-19 CNS
  TGI: > 100 µM
CCRF-CEM leukemia
  TGI: 79.9 µM and > 100 µM
BT-549 breast
  TGI: 74.5 µM
NCI/ADR-RES ovarian
  TGI: > 100 µM
DU-145 prostate
  TGI: > 100 µM
OVCAR-3 ovarian
  TGI: > 100 µM
SK-MEL-2 melanoma
  TGI: > 100 µM
PC-3 prostate
  TGI: > 100 µM
A498 renal
  TGI: > 100 µM
MOLT-4 leukemia
  TGI: 12.8 µM and > 100 µM
K-562 leukemia
  TGI: > 100 µM
SR leukemia
  TGI: > 100 µM
OVCAR-5 ovarian
  TGI: > 100 µM
IGROV1 ovarian
  TGI: > 100 µM
SW-620 colon
  TGI: > 100 µM
